Results as given in publication PMC12040169 (PLOS Biology, 2025).

Test: in vitro
Details: human, hela cells, % viability

COc1ccc(C(NC(=O)CCc2ccccc2)c2ccc3cccnc3c2O)cc1 (stereo not shown) [CBK293942]
viability at 28.5 h, 10 µM: 86%

CN1C(=O)c2cccc3c(S(=O)(=O)N4CCN(S(=O)(=O)c5ccc6c7c(cccc57)C(=O)N6C)CC4)ccc1c23 [CBK269140]
viability at 28.5 h, 10 µM: 98.2%

COc1ccc(C(=O)Nc2c(Cl)ccc3nsnc23)cc1 [CBK270252]
viability at 28.5 h, 10 µM: 87.2%

CCNC(=O)Nc1ccc2c(-c3ccccc3)ccnc2n1 [CBK070668]
viability at 28.5 h, 10 µM: 95.6%

Cc1sc(NC(=O)CC(C)(C)CC(=O)Nc2sc(C)c(C)c2C(=O)O)c(C(=O)O)c1C [CBK296094]
viability at 28.5 h, 10 µM: 98.7%

Oc1cccnc1SCc1nc2ccccc2s1 [CBK016367]
viability at 28.5 h, 10 µM: 112%

OC1(c2ccc(F)cc2)CCCC2CN(Cc3cccnc3)CC21 (stereo not shown) [CBK284377]
viability at 28.5 h, 10 µM: 86.8%

COc1ccc(C(NC(=O)CSCc2cccc(C(=O)O)c2)c2ccc(OC)cc2)cc1 [CBK296680]
viability at 28.5 h, 10 µM: 97.6%

CCCC(=O)Nc1ccc2c(c1)nc1n2CCN(Cc2ccccc2)C1 [CBK267129]
viability at 28.5 h, 10 µM: 105%

O=c1nc(NS(=O)(=O)c2ccc(Oc3ccccc3)cc2)c(F)c[nH]1 [CBK067571]
viability at 28.5 h, 10 µM: 89.3%

CCOc1cc(NC2CCN(C(=O)C(C)CC3CCCC3)CC2)ncn1 (stereo not shown) [CBK306176]
viability at 28.5 h, 10 µM: 85.3%

O=C(NCc1c(Cl)cccc1Cl)N1CCCC(CO)C1 (stereo not shown) [CBK156054]
viability at 28.5 h, 10 µM: 95.7%

COc1ccc(CN2CCCN(C(=O)c3ccc(F)cc3Br)CC2)cc1 [CBK251752]
viability at 28.5 h, 10 µM: 88.1%

CCN(CC)S(=O)(=O)c1cccc(-n2sc3ccccc3c2=O)c1 [CBK116501]
viability at 28.5 h, 10 µM: 96.2%

COc1ccc(CN2CCN(c3nccnc3OC3CCCCC3)CC2)cc1 [CBK082830T]
viability at 28.5 h, 10 µM: 115%

COC(=O)c1ccccc1NC(=O)C(C)Oc1ccc(Cl)cc1C (stereo not shown) [CBK262388]
viability at 28.5 h, 10 µM: 79.2%

Cc1ccc(CCC(=O)Nc2nc3c(cc2C#N)CCC3)o1 [CBK306366]
viability at 28.5 h, 10 µM: 67.1%

CCN(CC)C(=O)NC(C)c1cccc(S(=O)(=O)NC)c1 (stereo not shown) [CBK305134]
viability at 28.5 h, 10 µM: 94.4%

O=C(Cc1ccccc1)N1CCc2c([nH]c3ccccc23)C12CCNC2 (stereo not shown) [CBK059461]
viability at 28.5 h, 10 µM: 98.9%

C/N=C1/SC(CC(=O)Nc2cccc(C(=O)O)c2)C(=O)N1C (stereo not shown) [CBK265581]
viability at 28.5 h, 10 µM: 99.8%

Cc1nn(-c2ccccn2)c(C)c1[C@@H]1C=C[C@@H](NC(=O)NC(C)C)C1 [CBK289168]
viability at 28.5 h, 10 µM: 91.4%

O=C1CN(c2ccccc2)C(=O)N1c1ccccc1 [CBK116496]
viability at 28.5 h, 10 µM: 98.2%

Cn1nnnc1SCc1nc(N)nc(Nc2ccccc2)n1 [CBK268092]
viability at 28.5 h, 10 µM: 98.7%

CN(c1ncc(-c2cc3ccccc3o2)cc1C(=O)NCC(F)(F)F)S(C)(=O)=O [CBK106479]
viability at 28.5 h, 10 µM: 114%

Cn1c(-c2ccc(CN3CCCC3)cc2)nc2onc(-c3ccccc3)c2c1=O [CBK039188C]
viability at 28.5 h, 10 µM: 95.2%

Cc1ccc(NS(=O)(=O)c2cc3c(OC4CCNCC4)nccc3s2)cc1 [CBK046309C]
viability at 28.5 h, 10 µM: 96%

O=C(O)CC(c1ccncc1)c1c[nH]c2ccccc12 (stereo not shown) [CBK286913]
viability at 28.5 h, 10 µM: 90.9%

O=C(Cc1ccsc1)N1CCC2(CCN(Cc3ccccc3)CC2)C1 [CBK136742]
viability at 28.5 h, 10 µM: 89.8%

Cc1nc(C)n(CC2CCCN(Cc3ccccc3C#N)C2)n1 (stereo not shown) [CBK305085]
viability at 28.5 h, 10 µM: 98.4%

CCn1cncc1CN1CCCC(c2cc3cccnc3[nH]2)C1 (stereo not shown) [CBK284993]
viability at 28.5 h, 10 µM: 98.5%

COc1ncc(-c2nccnc2NCc2cccnc2)c(OC)n1 [CBK036817]
viability at 28.5 h, 10 µM: 101%

O=C(Nc1nnc(-c2ccncc2)o1)c1ccc(Cl)cc1Cl [CBK287433]
viability at 28.5 h, 10 µM: 82.3%

O=S(=O)(Cc1cc(Cl)ccc1C(F)(F)F)c1cc2c(N3CCNCC3)nccc2s1 [CBK049960C]
viability at 28.5 h, 10 µM: 115%

CC(C)CC1(C(CCN2C(=O)c3ccccc3C2=O)C(=O)NO)CCN(Cc2cccc(F)c2)C1=O (stereo not shown) [CBK013032]
viability at 28.5 h, 10 µM: 83.8%

O=C(c1c[nH]c2ccccc12)C(O)C(c1ccccc1)N1CCOCC1 (stereo not shown) [CBK267802]
viability at 28.5 h, 10 µM: 95.4%

Cn1cc(CC2CCN(Cc3ccncc3)C2)cn1 (stereo not shown) [CBK304796]
viability at 28.5 h, 10 µM: 107%

O=[N+]([O-])c1ccc(CN2CCN(C3CCN(Cc4ccccc4)CC3)CC2)cc1 [CBK264310G]
viability at 28.5 h, 10 µM: 98.5%

CCN(CC)CCSc1nc2sc3c(c2c(=O)n1-c1ccc(OC)cc1)CCCC3 [CBK263308]
viability at 28.5 h, 10 µM: 89.3%

CC(C)CN(C)CC(=O)NC1(c2ccccc2)CCC1 [CBK067455T]
viability at 28.5 h, 10 µM: 111%

O=C(CSc1ncnc2ccccc12)N(Cc1ccccc1F)C1CC1 [CBK295610]
viability at 28.5 h, 10 µM: 92.1%

c1cc(-c2nccnc2OCCn2ccnc2)ccn1 [CBK106737]
viability at 28.5 h, 10 µM: 87%

Cn1cc([C@H]2C[C@@H](O)[C@@H](CO)O2)c(=O)[nH]c1=O [CBK201171]
viability at 28.5 h, 10 µM: 88.9%

CCOC(=O)CNC1CCCCC1 [CBK023276C]
viability at 28.5 h, 10 µM: 91%

Cc1csc2c(C3CCN(C(=O)c4ccn(C)n4)CC3)nc(C)n12 [CBK285248]
viability at 28.5 h, 10 µM: 105%

O=c1c2c(n3c(S)nnc3n1Cc1ccco1)-c1ccccc1CC21CCCCC1 [CBK265271]
viability at 28.5 h, 10 µM: 94.7%

Cc1ccc(C2=NN(C(=O)CCC(=O)O)C(c3ccc4nccnc4c3)C2)cc1 (stereo not shown) [CBK287802]
viability at 28.5 h, 10 µM: 109%

CCCCOc1ccccc1NC(=O)CC1NCCNC1=O (stereo not shown) [CBK269299]
viability at 28.5 h, 10 µM: 94.7%

CC(Cn1nnc2ccccc21)C(=O)O (stereo not shown) [CBK264727]
viability at 28.5 h, 10 µM: 117%

COC(=O)Nc1cc2sccc2nc1C(F)(F)F [CBK019229]
viability at 28.5 h, 10 µM: 80%

O=C(O)c1ccc(NS(=O)(=O)c2ccc(Cl)cc2)cc1O [CBK200023]
viability at 28.5 h, 10 µM: 106%

O=C(CSc1nnc(-c2ccc(Cl)cc2Cl)o1)c1cc2ccccc2oc1=O [CBK268698]
viability at 28.5 h, 10 µM: 88.7%

O=c1[nH]c(=O)c2cc(S(=O)(=O)Nc3cccc(-c4ccc(F)cc4)c3)ccc2[nH]1 [CBK286394]
viability at 28.5 h, 10 µM: 84.2%

O=C(c1ccccc1F)N1C[C@H](c2ccsc2)[C@H]2CN(Cc3ccccc3F)CC[C@H]21 [CBK285656]
viability at 28.5 h, 10 µM: 97.4%

Fc1ccc(-c2ccc3c(c2)COC2(CCNCC2)O3)c(F)c1 [CBK060917]
viability at 28.5 h, 10 µM (bulk resorufin, single well): 96%

CC(C)(C)c1ccc(-c2nc(Nc3cccc(C(=O)O)c3)c3ccccc3n2)cc1 [CBK265229C]
viability at 28.5 h, 10 µM: 96.6%

CCC(C)(C)C(=O)Nc1ccc(Br)c2ccccc12 [CBK091342]
viability at 28.5 h, 10 µM: 79.7%

O=C(COC(=O)c1ccc(Cl)c(Cl)c1)c1ccc(Oc2ccc([N+](=O)[O-])cc2)cc1 [CBK264821]
viability at 28.5 h, 10 µM: 117%

Nc1nc(CSc2nnc(Cc3ccc([N+](=O)[O-])cc3)n2-c2ccccc2)cs1 [CBK267408]
viability at 28.5 h, 10 µM: 93.5%

CCNC(=O)c1cc2c(=O)n3ccccc3nc2n1C [CBK287556]
viability at 28.5 h, 10 µM: 104%

O=[N+]([O-])c1ccccc1N/N=C/c1c[nH]c2ccccc12 [CBK261679]
viability at 28.5 h, 10 µM: 89.6%

CNC(=O)c1ccc(-c2ccc(C(C)=O)s2)nc1NCC1CC1 [CBK106307]
viability at 28.5 h, 10 µM: 95.3%

O=[N+]([O-])c1cccc(-c2noc([C@@H]3C[C@@H](O)CN3C3CCOCC3)n2)c1 [CBK288847]
viability at 28.5 h, 10 µM: 101%

c1coc(-c2nccnc2NCCCN2CCOCC2)c1 [CBK038086]
viability at 28.5 h, 10 µM: 96.8%

CCCCCC(=O)Nc1ccc(C(=O)CSc2nnc(-c3ccco3)o2)cc1 [CBK295134]
viability at 28.5 h, 10 µM: 84%
